The procedure of series [1]:
The method has historic precedent for accurately predicting in vivo percutaneous absorption kinetics.
To assure the integrity of each skin section, its permeability to tritiated water was determined before application of the test products.

Series [2] in a line: Degradation of compound (II) in neutral ethanol. The settings on record: room temperature, 24 hours. In kind it is physicochemical.
Series [3] is described as follows: Saturation solubility of compound (II) in the gel formulation. In kind it is physicochemical. The conditions noted are these: acidified nonaqueous gel, refrigerated storage (2-8° C.).
Series [4] can be described thus: Exposure of gels to laboratory light. The class given is physicochemical. The settings on record: exposure to laboratory light for up to five days.
Setting [5] is: skin dosed with compound (II) formulations.

Like-named read-outs stand apart in the source and are kept apart here.

Turning to `O=C(O)c1ccc(O)cc1` [4-OH Benzoic acid], in series [1] (setting [5]), the “presence of degradation products in the samples” value (shortened to “presence of degradation products”) is recorded as “present in the majority of the samples”.

As for `COC(=O)c1ccc(OC(=O)CCCCCCC(=O)NO)cc1` [Compound (II)], in series [2], the “degradation of compound (II)” value is listed as “approximately 50%”. In addition, the “formulation's saturation solubility for compound (II)” value in series [3] was “approximately 1.6 % w/w”. For the same compound, the “effect of light on assay values for compound (II)” value in series [4] is listed as “did not significantly affect”. In series [1] (human, 24 h, pH 6), the “detectable compound (II) found in the epidermis” value is on record as 0.3-0.9% and the “detectable compound (II) found in the surface wash” value is on record as 20-69%.

For the compound `O=C(O)CCCCCCC(=O)NO` [Compound (III)], the “presence of degradation products” value in series [1] is on record as “present in the majority of the samples”.

For the compound `COC(=O)c1ccc(O)cc1` [Methylparaben], in series [1] (setting [5]), the “presence of degradation products” value is “present in the majority of the samples”.

(Values after patent US10258595B2, “Pharmaceutical formulation for histone deacetylase inhibitors” (TetraLogic Shape UK Ltd, priority 2010, dated 2019).)
